US20070141637A1, “Marker for fenestrae” (priority 2004, published 2007)

Columns and labels:
[1] = tested on: Py4.1 cells; assay: Subtractive 2D-gel analysis of plasma membranes, latrunculin-induced versus control cells; format: cell-based, mouse; details: Py4.1 plasma membranes, Progenesis Software
Procedure: In one embodiment the method of identifying components of fenestrae comprises the step of Subtractive 2D-gel electrophoresis analysis. Sufficient material was pooled to generate one batch of triplicate gels for vehicle-induced and un-induced Py4.1 cells, and three sets of triplicate gels for untreated, vehicle-induced, and induced bEND5 cells (FIG. 6 and FIG. 13). All gels per cell type were analyzed collectively using ProGenesis® software (Prolific, Inc. Newark, Calif.) to obtain fold differences between the staining intensities of spots in the induced and the uninduced samples and p-values for those differences using the Students t-test (FIG. 7). In the first round of analysis, spots that qualified for one or more of the following criteria were selected: a) fold increase in staining intensity greater than 2 in the induced sample, b) p-value less than 0.05 for any fold increase, c) spot being unique in induced sample. A summary of all the spots selected for mass spectrometry, with their accompanying fold differences and p-values is shown in FIG. 15.
Methods for inducing fenestrae formation in endothelial cells are described in U.S. Provisional Patent No. 60/627,981, which is hereby incorporated by reference in its entirety. Coverslips and dishes were coated with 1% gelatin (Sigma) solution in PBS for 30 minutes at room temperature. […]

[2] = tested on: bEND5 and Py4.1 cells; assay: Western blotting of candidate proteins in plasma membranes of latrunculin-induced versus control cells; format: cell-based, mouse; details: LPM versus CPM, equal amounts of protein
Procedure: To confirm the findings of the subtractive proteomic analysis, immunoblotting on the relevant fractions was performed with antibodies to candidate proteins. By comparing equal amounts of protein in the two conditions, change in the protein levels of cofilin, alpha-enolase, radixin, moesin, annexin II, and hnRNP K was evaluated (FIG. 9A, 9B).
Methods for inducing fenestrae formation in endothelial cells are described in U.S. Provisional Patent No. 60/627,981, which is hereby incorporated by reference in its entirety. Coverslips and dishes were coated with 1% gelatin (Sigma) solution in PBS for 30 minutes at room temperature. Endothelial cells were seeded overnight at a density equivalent to 1.5×10^6 cells per 100 mm dish. Cultures were induced with Cytochalasin B (Sigma) at 10 μM for 2 hours, with Latrunculin A (Molecular Probes) at 2.5 μM for 3 hours, or with a combination of recombinant mouse 75 ng/ml VEGF (R&D systems) for 6-72 hours and 10 μM Cytochalasin B for 2 hours. Cells were processed for biochemistry or morphology immediately after the end of the induction.
All steps in the procedure were performed on ice or in centrifuges pre-cooled to 4° C. Cells grown on 150 mm dishes were washed twice with PBS containing calcium and magnesium (Invitrogen), and once with coating buffer (20 mM MES, 135 mM NaCl, 0.5 mM CaCl2, 1 mM MgCl2, pH 5.5). […]

In the case of `C/C1=C/C(=O)O[C@@H]2C[C@@H](CC[C@H](C)/C=C\C=C\CC1)O[C@@](O)([C@@H]1CSC(=O)N1)C2` [latrunculin, Latrunculin A], the “spot 659 intensity, latrunculin-induced versus control samples” value [1] is reported as 1.772 fold, the “spot 401 intensity, latrunculin-induced versus control samples” value ([1]; part of a train of spots (phosphorylation states)) is reported as 3.8 fold and the “enrichment of phosphorylated moesin, hnRNP K, cofilin and alpha-enolase in plasma membranes” value [2] is reported as “Enrichment in induced cells is confirmed”.
